# Article PMC6271077, “Synthesis, Anticancer and Antibacterial Activity of Salinomycin N-Benzyl Amides” (Molecules, 2014)
# Read-outs that look alike come from different tables or passages of the source.
# Assays:
# [1] = test system: MRSE 467/11; experiment: MIC microdilution, hospital MRSE; format: cell-based; details: Staphylococcus epidermidis
# [2] = test system: MRSA 573/12; experiment: MIC microdilution, hospital MRSA; format: cell-based; details: Staphylococcus aureus
# [3] = test system: M. tuberculosis isoniazid-sensitive strain (spec. 192); experiment: Tuberculostatic activity, test-tube dilution; format: cell-based; details: Mycobacterium tuberculosis, read-out: MIC M. tuberculosis Isoniazid-Sensitive Strain
# [4] = test system: S. aureus ATCC 6538; experiment: MIC microdilution; format: cell-based; details: Staphylococcus aureus
# [5] = test system: MRSA 452/11; experiment: MIC microdilution, hospital MRSA; format: cell-based; details: Staphylococcus aureus
# [6] = test system: MRSE 469/11; experiment: MIC microdilution, hospital MRSE; format: cell-based; details: Staphylococcus epidermidis
# [7] = test system: MRSA; experiment: MIC microdilution, MRSA strains overall (range given); format: cell-based, Staphylococcus aureus; details: hospital MRSA strains
# [8] = test system: MRSA and MRSE; experiment: MIC microdilution, MRSA and MRSE overall (range given); format: cell-based; details: hospital MRSA and MRSE strains
# [9] = test system: HL-60/vinc; experiment: Antiproliferative MTT assay, HL-60/vinc; format: cell-based, human; details: for IC50: Homo sapiens, HL60/vinc, 72 h, read-out: IC50 HL-60/vinc; for IR HL-60/vinc: IR = IC50 HL-60/vinc / IC50 HL-60; for SI HL-60/vinc: SI = IC50 BALB/3T3 / IC50 HL-60/vinc
# Summary of the method: (§1)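 Leukemia cells seeded at 10^4 per well and exposed 24 h later to four concentrations (100–0.1 µg/mL) for 72 h; HL-60/vinc cultured with doxorubicin. MTT added 4 h, formazan lysed 24 h, absorbance 570 nm; IC50 from triplicates, ≥3 independent experiments.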
# [10] = test system: standard strains of Gram-positive bacteria; experiment: MIC microdilution, standard Gram-positive strains overall (range given); format: cell-based; details: standard S. aureus and S. epidermidis strains
# [11] = test system: S. epidermidis ATCC 35984; experiment: MIC microdilution; format: cell-based; details: Staphylococcus epidermidis
# [12] = test system: MRSE 488/11; experiment: MIC microdilution, hospital MRSE; format: cell-based; details: Staphylococcus epidermidis
# [13] = test system: MRSE 459/11; experiment: MIC microdilution, hospital MRSE; format: cell-based; details: Staphylococcus epidermidis
# [14] = test system: HL-60; experiment: Antiproliferative MTT assay, HL-60; format: cell-based, human; details: for IC50: Homo sapiens, read-out: IC50 HL-60; for SI HL-60: SI = IC50 BALB/3T3 / IC50 HL-60
# Summary of the method: as §1
# [15] = test system: breast cancer stem cells (CSCs); parameters: method as in PMID 19682730; details: versus Taxol; cited from earlier work
# [16] = hospital MRSE strain 467/11, read-out: MIC
# [17] = hospital MRSA strain 573/12, read-out: MIC
# [18] = ATCC6538, S. aureus ATCC 6538, 18 h, 35 °C, read-out: MIC
# [19] = hospital MRSA strain 452/11, read-out: MIC
# [20] = hospital MRSE strain 469/11, read-out: MIC
# [21] = ATCC35984, S. epidermidis ATCC 35984, 18 h, 35 °C, read-out: MIC
# [22] = hospital MRSE strain 488/11, read-out: MIC
# [23] = hospital MRSE strain 459/11, read-out: MIC
SMILES,"MIC [1, 16] [µg/mL]","MIC [2, 17] [µg/mL]",MIC [3] [µg/mL],"MIC [4, 18] [µg/mL]","MIC [5, 19] [µg/mL]","MIC [6, 20] [µg/mL]",MIC (range over MRSA and MRSE) [8] [µg/mL],IC50 [9] [nM],IR HL-60/vinc [9],SI HL-60/vinc [9],MIC (range over standard strains of Gram-positive bacteria) [10] [µg/mL],"MIC [11, 21] [µg/mL]","MIC [12, 22] [µg/mL]","MIC [13, 23] [µg/mL]",SI HL-60 [14],also measured
CC[C@H](C(=O)NCc1ccc(F)cc1)C1CC[C@H](C)C([C@@H](C)[C@H](O)[C@H](C)C(=O)[C@H](CC)C2O[C@]3(C=C[C@@H](O)C4(CC[C@@](C)(C5CC[C@](O)(CC)[C@H](C)O5)O4)O3)[C@H](C)C[C@@H]2C)O1 (stereo partly shown) [F-p],64,64,50,16,16,64,16 to 128,11800 ± 2560,3.28,0.73,16 to 32,32,128,32,2.40,"MIC (range over MRSA strains) [7]: 16 to 64 µg/mL; IC50 ([14]; HL-60, 72 h, MTT, mean ± SD, NA: not active in concentrations used (up to 100 µg/mL)): 3600 ± 690 nM"
CC[C@H](C(=O)NCc1ccc([N+](=O)[O-])cc1)C1CC[C@H](C)C([C@@H](C)[C@H](O)[C@H](C)C(=O)[C@H](CC)C2O[C@]3(C=C[C@@H](O)C4(CC[C@@](C)(C5CC[C@](O)(CC)[C@H](C)O5)O4)O3)[C@H](C)C[C@@H]2C)O1 (stereo partly shown) [NO2-p],128,256,50,128,128,256,128 to 256,,,,128,128,256,128,,
"CC[C@@H](C(=O)[C@@H](C)[C@@H](O)[C@H](C)[C@@H]1O[C@@H]([C@@H](CC)C(=O)O)CC[C@@H]1C)[C@H]1O[C@]2(C=C[C@@H](O)[C@]3(CC[C@@](C)([C@H]4CC[C@](O)(CC)[C@H](C)O4)O3)O2)[C@H](C)C[C@@H]1C [SAL, Salinomycin]",,,25,,,,,2330 ± 120,7.06,5.59,,,,,39.45,"MIC ([1]; MRSE): 16 µg/mL; MIC ([2]; MRSA): 16 µg/mL; MIC ([4]; ATCC6538, 18 h): 2 µg/mL; MIC ([5]; MRSA): 16 µg/mL; MIC ([6]; MRSE): 16 µg/mL; MIC ([11]; ATCC35984, 18 h): 2 µg/mL; MIC ([12]; MRSE): 16 µg/mL; MIC ([13]; MRSE): 16 µg/mL; IC50 ([14]; HL-60, 72 h): 330 ± 120 nM; fold more effective than Taxol [15]: ~100 fold"
